The term IC50 denotes the point on the concentration scale where inhibition reaches its midpoint.

Experimental findings from patent US10508085B2, “Compounds and methods for IDO and TDO modulation, and indications therefor” (Plexxikon Inc., priority 2016, dated 2019) are described below.

Each structure is given as a SMILES string. Like-named read-outs stand apart in the source and are kept apart here.

The target of assay [1] is T1, human IDO (IDO1-expressing HEK293 cells) (Homo sapiens, UniProt P14902).
T1 construct: expressed in transfected cells
Description: Cell based kynurenine assay, IDO1-expressing HEK293 cell clones. To be noted: IDO1-expressing HEK293 cells, geometric mean, read-out: HEK293 IDO1 Kynurenine GMean IC50 (μM) (Cellular Assay). The method in brief: (§1)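 Steps: seed IDO1- or TDO-expressing HEK293 cells at 2.5×10^4 per well; add compound dilutions; incubate 24 h; transfer supernatant and determine kynurenine; derive IC50 via nonlinear regression of percent inhibition.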

In assay [2] the target is T2, human TDO (TDO-expressing HEK293 cells) (Homo sapiens, UniProt P48775).
T2 construct: expressed in transfected cells
Put plainly: Cell based kynurenine assay, TDO-expressing HEK293 cell clones. The settings on record: TDO-expressing HEK293 cells, geometric mean, read-out: HEK293 TDO Kynurenine GMean IC50 (μM) (Cellular Assay). The method in brief:
as §1

For assay [3], the target named is T3, Human Tryptophan 2,3-dioxygenase (TDO) (Homo sapiens, UniProt P48775).
T3 construct: His tag (N); made in house; host or cells: E. coli
Put plainly: Human TDO enzymatic assay (kynurenine level). The settings on record: 1 nM TDO, 350 μM L-Trp; geometric mean; read-out: TDO GMean: IC50 (μM) (Biochemical Assay). It is filed as biochemical. The method in brief: (§2)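 Kynurenine formed is measured after TCA quench and 50 °C hydrolysis, with % inhibition against full-reaction and no-enzyme controls (5% DMSO). IDO: 6 nM enzyme, 10 μM L-Trp, 5 μM methylene blue, 20 min; TDO: 1 nM, 350 μM L-Trp, 0.4 μM methylene blue, 70 min; both pH 6.5, room temp, E. coli-expressed His-tagged.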

The target in assay [4] is T4, Human Indoleamine 2,3-dioxygenase (IDO) (Homo sapiens, UniProt P14902).
T4 construct: His tag (N); made in house; host or cells: E. coli
Put plainly: Human IDO enzymatic assay (kynurenine level). It is filed as biochemical. The settings on record: 6 nM IDO, 10 μM L-Trp; geometric mean; read-out: IDO1 GMean: IC50 (μM) (Biochemical Assay). The method in brief: as §2

T1 sequence (P14902 whole entry): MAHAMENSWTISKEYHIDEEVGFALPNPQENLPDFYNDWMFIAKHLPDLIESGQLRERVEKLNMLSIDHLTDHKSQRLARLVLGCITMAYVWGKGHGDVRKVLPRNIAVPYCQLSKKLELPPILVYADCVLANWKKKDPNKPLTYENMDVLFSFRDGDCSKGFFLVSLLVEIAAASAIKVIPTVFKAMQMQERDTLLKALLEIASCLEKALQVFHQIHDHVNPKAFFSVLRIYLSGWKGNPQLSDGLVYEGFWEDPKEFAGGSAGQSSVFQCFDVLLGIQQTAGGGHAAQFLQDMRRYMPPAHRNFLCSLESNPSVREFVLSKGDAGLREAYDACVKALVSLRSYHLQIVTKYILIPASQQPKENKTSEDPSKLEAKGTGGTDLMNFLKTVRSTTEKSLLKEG
T4 sequence (P14902 whole entry): as above
T3 sequence (P48775 whole entry): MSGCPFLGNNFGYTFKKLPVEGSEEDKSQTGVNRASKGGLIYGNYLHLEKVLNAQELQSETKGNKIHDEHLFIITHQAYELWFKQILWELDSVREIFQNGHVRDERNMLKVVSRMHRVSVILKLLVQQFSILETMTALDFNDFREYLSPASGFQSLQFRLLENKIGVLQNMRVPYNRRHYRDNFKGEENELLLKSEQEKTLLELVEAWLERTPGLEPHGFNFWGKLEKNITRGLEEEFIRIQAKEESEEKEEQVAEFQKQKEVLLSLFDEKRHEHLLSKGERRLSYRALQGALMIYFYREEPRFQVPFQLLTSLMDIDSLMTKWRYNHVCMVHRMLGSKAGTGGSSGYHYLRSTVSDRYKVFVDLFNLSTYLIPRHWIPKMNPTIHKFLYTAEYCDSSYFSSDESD
T2 sequence (P48775 whole entry): as above

Turning to `CC(C)(C1CCOCC1)C(O)c1cc(Cl)c(F)c2cn[nH]c12` (stereo not shown) [Compound P-0217, 1-(5-chloro-4-fluoro-1H-indazol-7-yl)-2-methyl-2-(tetrahydro-2H-pyran-4-yl)propan-1-ol], the IC50 in assay [1] (24 hours incubation), in assay [2] (24 hours incubation), in assay [3] and in assay [4] was 0.0001 to 10 µM each time.
In the case of `CC(C)(C(O)c1c(F)c(Cl)cc2cn[nH]c12)[C@H]1C[C@H]2CC[C@@H](C1)N2S(C)(=O)=O` (stereo partly drawn) [Compound P-0285, 1-(5-chloro-6-fluoro-1H-indazol-7-yl)-2-methyl-2-((1R,3r,5S)-8-(methylsulfonyl)-8-azabicyclo[3.2.1]octan-3-yl)propan-1-ol], the IC50 in assay [1] (24 hours incubation), in assay [2] (24 hours incubation), in assay [3] and in assay [4] was 0.0001 to 10 µM each time.
Regarding `CC(C)C(=O)N1CCC(C(F)(F)C(O)c2c(F)c(Cl)cc3cn[nH]c23)CC1` (stereo not shown) [Compound P-0377, 1-(4-(2-(5-chloro-6-fluoro-1H-indazol-7-yl)-1,1-difluoro-2-hydroxyethyl)piperidin-1-yl)-2-methylpropan-1-one], the IC50 in assay [1] (24 hours incubation), in assay [2] (24 hours incubation), in assay [3] and in assay [4] was 0.0001 to 10 µM throughout.
As for `OC(c1cc(Cl)cc2cn[nH]c12)C1CCC(F)(F)CC1` (stereo not shown) [Compound P-0022, (5-chloro-1H-indazol-7-yl)(4,4-difluorocyclohexyl)methanol], the IC50 in assay [1] (24 hours incubation), in assay [2] (24 hours incubation), in assay [3] and in assay [4] was 0.0001 to 10 µM throughout.
With `CC(=O)N1CCC(C(C)(C)[C@H](O)c2cc(Cl)cc3cn[nH]c23)CC1` [Compound P-0542, (S)-1-(4-(1-(5-chloro-1H-indazol-7-yl)-1-hydroxy-2-methylpropan-2-yl)piperidin-1-yl)ethan-1-one], the IC50 in assay [1] (24 hours), in assay [2] (24 hours), in assay [3] and in assay [4] was 0.0001 to 10 µM each time.
As for `COc1cc(C(O)C2(C)CCCCC2)c2[nH]ncc2c1` (stereo not shown) [Compound P-0115, (5-methoxy-1H-indazol-7-yl)(1-methylcyclohexyl)methanol], the IC50 in assay [1] (24 hours incubation), in assay [2] (24 hours incubation), in assay [3] and in assay [4] was 0.0001 to 10 µM in each case.
For the molecule `CC(C)(C1CCN(C(=O)NCCO)CC1)C(O)c1cc(Cl)cc2cn[nH]c12` (stereo not shown) [Compound P-0476, 4-(1-(5-chloro-1H-indazol-7-yl)-1-hydroxy-2-methylpropan-2-yl)-N-(2-hydroxyethyl) piperidine-1-carboxamide], the IC50 in assay [1] (24 hours), in assay [2] (24 hours), in assay [3] and in assay [4] was 0.0001 to 10 µM throughout.
As to `CCS(=O)(=O)N1CCC(C(C)(C)C(O)c2cc(Cl)cc3cn[nH]c23)CC1` (stereo not shown) [Compound P-0304, 1-(5-chloro-1H-indazol-7-yl)-2-(1-(ethylsulfonyl)piperidin-4-yl)-2-methylpropan-1-ol], the IC50 in assay [1] (24 hours incubation), in assay [2] (24 hours incubation), in assay [3] and in assay [4] was 0.0001 to 10 µM in each case.
With `COCCNC(=O)N1CCC(C(C)(C)C(O)c2cc(Cl)cc3cn[nH]c23)CC1` (stereo not shown) [Compound P-0388, 4-(1-(5-chloro-1H-indazol-7-yl)-1-hydroxy-2-methylpropan-2-yl)-N-(2-methoxyethyl) piperidine-1-carboxamide], the IC50 in assay [1] (24 hours incubation), in assay [2] (24 hours incubation), in assay [3] and in assay [4] was 0.0001 to 10 µM each time.
With `O=C(c1cccnc1)N1CCC(C(F)(F)C(O)c2c(F)c(Cl)cc3cn[nH]c23)CC1` (stereo not shown) [Compound P-0341, (4-(2-(5-chloro-6-fluoro-1H-indazol-7-yl)-1,1-difluoro-2-hydroxyethyl)piperidin-1-yl)(pyridin-3-yl)methanone], the concentration for half-maximal inhibition (IC50) in assay [1] (24 hours incubation), in assay [2] (24 hours incubation), in assay [3] and in assay [4] was 0.0001 to 10 µM each time.
As for `OC(c1cccc2cncn12)C1CCCC1` (stereo not shown) [Compound P-0058, cyclopentyl(imidazo[1,5-a]pyridin-5-yl)methanol], the IC50 in assay [1] (24 hours incubation) is 0.0001 to 10 µM; in assay [2] (24 hours incubation), above 10 µM; in assay [3] it was 0.0001 to 10 µM; in assay [4] it was 0.0001 to 10 µM.
For the molecule `Cc1ccc(Cl)c(NC(=O)N2CCC(C(C)(C)C(O)c3cc(Cl)cc4cn[nH]c34)CC2)c1` (stereo not shown) [Compound P-0406, 4-(1-(5-chloro-1H-indazol-7-yl)-1-hydroxy-2-methylpropan-2-yl)-N-(2-chloro-5-methylphenyl) piperidine-1-carboxamide], the IC50 in assay [1] (24 hours), in assay [2] (24 hours), in assay [3] and in assay [4] was 0.0001 to 10 µM in each case.
Take `CC1(C(O)c2cc(Cl)cc3cn[nH]c23)CC(F)(F)C1` (stereo not shown) [Compound P-0018, (5-chloro-1H-indazol-7-yl)(3,3-difluoro-1-methylcyclobutyl)methanol]: the IC50 in assay [1] (24 hours incubation), in assay [2] (24 hours incubation), in assay [3] and in assay [4] was 0.0001 to 10 µM each time.
On to `COCC(=O)N1CCC(C(C)(C)[C@@H](O)c2cc(Cl)cc3cn[nH]c23)CC1` [Compound P-0435, (R)-1-(4-(1-(5-chloro-1H-indazol-7-yl)-1-hydroxy-2-methylpropan-2-yl)piperidin-1-yl)-2-methoxyethan-1-one], for which the IC50 in assay [1] (24 hours), in assay [2] (24 hours), in assay [3] and in assay [4] was 0.0001 to 10 µM each time.
As to `CC(C)(C1CCN(C(=O)NC[C@H]2CCCO2)CC1)[C@H](O)c1cc(Cl)cc2cn[nH]c12` [Compound P-0565, 4-((S)-1-(5-chloro-1H-indazol-7-yl)-1-hydroxy-2-methylpropan-2-yl)-N-(((R)-tetrahydrofuran-2-yl)methyl)piperidine-1-carboxamide], the IC50 in assay [1] (24 hours), in assay [2] (24 hours), in assay [3] and in assay [4] was 0.0001 to 10 µM in each case.
In the case of `CCC(=O)N1CCC(C(C)(C)[C@@H](O)c2cc(Cl)cc3cn[nH]c23)CC1` [Compound P-0423, (R)-1-(4-(1-(5-chloro-1H-indazol-7-yl)-1-hydroxy-2-methylpropan-2-yl)piperidin-1-yl)propan-1-one], the IC50 in assay [1] (24 hours), in assay [2] (24 hours), in assay [3] and in assay [4] was 0.0001 to 10 µM throughout.
In the case of `OC(c1c(F)c(Cl)cc2cn[nH]c12)C12CCC(F)(CC1)CC2` (stereo not shown) [Compound P-0299, (5-chloro-6-fluoro-1H-indazol-7-yl)(4-fluorobicyclo[2.2.2]octan-1-yl)methanol], the IC50 in assay [1] (24 hours incubation), in assay [2] (24 hours incubation), in assay [3] and in assay [4] was 0.0001 to 10 µM throughout.
For the molecule `CC(C)(C1CCN(C(=O)C2CCC2)CC1)C(O)c1cc(Cl)cc2cn[nH]c12` (stereo not shown) [Compound P-0412, (4-(1-(5-chloro-1H-indazol-7-yl)-1-hydroxy-2-methylpropan-2-yl)piperidin-1-yl)(cyclobutyl) methanone], the IC50 in assay [1] (24 hours), in assay [2] (24 hours), in assay [3] and in assay [4] was 0.0001 to 10 µM throughout.
In the case of `CN(C)CC(=O)N1CCC(C(C)(C)C(O)c2cc(Cl)cc3cn[nH]c23)CC1` (stereo not shown) [Compound P-0455, 1-(4-(1-(5-chloro-1H-indazol-7-yl)-1-hydroxy-2-methylpropan-2-yl)piperidin-1-yl)-2-(dimethylamino) ethan-1-one], the IC50 in assay [1] (24 hours), in assay [2] (24 hours), in assay [3] and in assay [4] was 0.0001 to 10 µM each time.
For `CC(C)(C1CCN(C(=O)NC(=O)c2ccccc2)CC1)[C@H](O)c1c(F)c(Cl)cc2cn[nH]c12` [Compound P-0514, (S)-N-benzoyl-4-(1-(5-chloro-6-fluoro-1H-indazol-7-yl)-1-hydroxy-2-methylpropan-2-yl)piperidine-1-carboxamide], the IC50 in assay [1] (24 hours), in assay [2] (24 hours), in assay [3] and in assay [4] was 0.0001 to 10 µM throughout.
In the case of `CC1(C(O)c2c(F)c(Cl)c(F)c3cn[nH]c23)CCCCC1` (stereo not shown) [Compound P-0123, (5-chloro-4,6-difluoro-1H-indazol-7-yl)(1-methylcyclohexyl)methanol], the IC50 in assay [1] (24 hours incubation), in assay [2] (24 hours incubation), in assay [3] and in assay [4] was 0.0001 to 10 µM throughout.
For `CC(C)(C(O)c1cc(Cl)cc2cn[nH]c12)N1CCCC1` (stereo not shown) [Compound P-0231, 1-(5-chloro-1H-indazol-7-yl)-2-methyl-2-(pyrrolidin-1-yl)propan-1-ol], the IC50 in assay [1] (24 hours incubation) is above 10 µM; in assay [2] (24 hours incubation), above 10 µM; in assay [3] it was 10 to 100 µM; in assay [4] it was 100 to 200 µM.
